Reference: article PMC8535176, “Efficacy of epetraborole against Mycobacterium abscessus is increased with norvaline” (PLoS Pathogens, 2021)
In brackets after ≈: the same amount, converted by molar mass. Where two headings read alike, the source gives them in different places.

Experiments:
Assay in all cases: microbe, parasite or virus in culture
C. glutamicum = tested on: C. glutamicum; parameters: Whole-cell growth inhibition, dose-response MIC (MIC90) by resazurin microtiter assay (REMA), fluorescence read-out; settings: Corynebacterium glutamicum
B. cereus = tested on: B. cereus; parameters: Whole-cell growth inhibition, dose-response MIC (MIC90) by resazurin microtiter assay (REMA), fluorescence read-out; settings: Bacillus cereus
M. avium hominissuis = tested on: M. avium hominissuis; parameters: Whole-cell growth inhibition, dose-response MIC (MIC90) by resazurin microtiter assay (REMA), fluorescence read-out; settings: Mycobacterium avium
M. tuberculosis H37Rv = tested on: T1, M. tuberculosis H37Rv; parameters: Whole-cell growth inhibition, dose-response MIC (MIC90) by resazurin microtiter assay (REMA), fluorescence read-out; settings: Mycobacterium tuberculosis, H37RV
T1 construct: H37Rv

M. abscessus = tested on: M. abscessus; parameters: Whole-cell growth inhibition, dose-response MIC (MIC90) by resazurin microtiter assay (REMA), fluorescence read-out; settings: Mycobacteroides abscessus
M. avium intracellulaire = tested on: M. avium intracellulaire; parameters: Whole-cell growth inhibition, dose-response MIC (MIC90) by resazurin microtiter assay (REMA), fluorescence read-out; settings: Mycobacterium avium
M. tuberculosis Erdman = tested on: T2, M. tuberculosis Erdman; parameters: Whole-cell growth inhibition, dose-response MIC (MIC90) by resazurin microtiter assay (REMA), fluorescence read-out; settings: Mycobacterium tuberculosis, ERDMAN
T2 construct: Erdman

P. aeruginosa = tested on: P. aeruginosa; parameters: Whole-cell growth inhibition, dose-response MIC (MIC90) by resazurin microtiter assay (REMA), fluorescence read-out; settings: Pseudomonas aeruginosa
E. coli = tested on: E. coli; parameters: Whole-cell growth inhibition, dose-response MIC (MIC90) by resazurin microtiter assay (REMA), fluorescence read-out; settings: Escherichia coli
[1] = tested on: T3, Mycobacteroides abscessus subsp. massiliense MT15_1748; parameters: species or system M. abscessus; Resazurin microtiter assay (REMA), fluorescence; MIC at 90% growth inhibition from Gompertz fit; settings: 48 h, rough morphotype
T3 construct: MT15_1748
Experimental: (§1) MIC values were determined using the resazurin microtiter assay (REMA). Cultures were grown to log phase (OD600 of 0.4–0.8) and diluted to OD600 of 0.005. Drugs were prepared in two-fold serial dilutions in 96-well plates with 90 μL of bacteria per well to a final volume of 100 μL. Plates were incubated at 37°C until drug-free wells were turbid (2 days for M. abscessus). Ten μL of resazurin (0.025% wt/vol) was added to each well. Once the drug-free wells turned pink (one doubling time), the fluorescence (ex/em 560nm/590nm) was measured using an Infinite F200 Tecan plate reader. Fluorescence intensities were converted to % viable cells relative to drug-free conditions and fit to the Gompertz equation using GraphPad Prism version 9. MIC values at 90% growth inhibition were determined from the nonlinear regression Gompertz equation. Next, we tested the in vitro activity of EPT against a panel of M. abscessus clinical isolates belonging to the three subspecies of the M. abscessus complex (M. abscessus, M. massiliense, and M. bolletii) with smooth and rough colony morphologies and with different drug susceptibility profiles to various antibiotics. There was no loss in activity against clinical isolates (range of 0.014–0.046 μg/mL) nor different morphologies (S2 Table). To determine the spectrum of activity of EPT, we curated a panel of various mycobacteria and representative gram-positive and gram-negative bacteria. […] Mycobacteria strains were grown in rolling [compound left out] culture at 37°C in Middlebrook 7H9 (Difco) supplemented with 10% albumin dextrose catalase (ADC), 0.2% glycerol, and 0.05% Tween 80 (7H9 complete) or on 7H10 agar plates supplemented with 10% oleic acid ADC and 0.5% glycerol at 37°C. When mentioned, the carbon source was modified from glycerol to acetate or the detergent Tween 80 was removed from the media. Bacillus cereus (clinical isolate), Corynebacterium glutamicum (ATCC 13032), Escherichia coli, and Pseudomonas aeruginosa PAO1 were grown in LB broth. HepG2 cells (ATCC HB-8065) were grown in Dulbecco’s modified Eagle’s medium (DMEM) with phenol red (from Gibco) supplemented with 10% fetal bovine serum at 37°C with 5% CO2.

[2] = tested on: T4, Mycobacteroides abscessus subsp. bolletii AV; parameters: species or system M. abscessus; Resazurin microtiter assay (REMA), fluorescence; MIC at 90% growth inhibition from Gompertz fit; settings: 48 h, smooth morphotype
T4 construct: AV
Experimental: as §1

[3] = tested on: T5, Mycobacteroides abscessus subsp. massiliense MT15_1749; parameters: species or system M. abscessus; Resazurin microtiter assay (REMA), fluorescence; MIC at 90% growth inhibition from Gompertz fit; settings: 48 h, rough morphotype
T5 construct: MT15_1749
Experimental: as §1

[4] = tested on: T6, Mycobacteroides abscessus subsp. bolletii Paris 167; parameters: species or system M. abscessus; Resazurin microtiter assay (REMA), fluorescence; MIC at 90% growth inhibition from Gompertz fit; settings: 48 h, rough morphotype
T6 construct: Paris 167
Experimental: as §1

[5] = tested on: T7, Mycobacteroides abscessus subsp. abscessus ATCC 19977; parameters: species or system M. abscessus; Resazurin microtiter assay (REMA), fluorescence; MIC at 90% growth inhibition from Gompertz fit; settings: ATCC19977, 48 h, rough morphotype
T7 construct: ATCC 19977
Experimental: as §1

[6] = tested on: T8, Mycobacteroides abscessus subsp. abscessus MT16_1065; parameters: species or system M. abscessus; Resazurin microtiter assay (REMA), fluorescence; MIC at 90% growth inhibition from Gompertz fit; settings: 48 h, smooth morphotype
T8 construct: MT16_1065
Experimental: as §1

[7] = tested on: T9, Mycobacteroides abscessus subsp. abscessus MT16_6490; parameters: species or system M. abscessus; Resazurin microtiter assay (REMA), fluorescence; MIC at 90% growth inhibition from Gompertz fit; settings: 48 h, smooth morphotype
T9 construct: MT16_6490
Experimental: as §1

## CC[C@H]1OC(=O)[C@H](C)[C@@H](O[C@H]2C[C@@](C)(OC)[C@@H](O)[C@H](C)O2)[C@H](C)[C@@H](O[C@@H]2O[C@H](C)C[C@H](N(C)C)[C@H]2O)[C@](C)(OC)C[C@@H](C)C(=O)[C@H](C)[C@@H](O)[C@]1(C)O [Clarithromycin]
C. glutamicum; read-out: MIC (µg/mL) / CLR
  MIC: > 8.2 µg/mL
B. cereus; read-out: MIC (µg/mL) / CLR
  MIC: > 8.2 µg/mL
M. avium hominissuis; read-out: MIC (µg/mL) / CLR
  MIC: 0.18 µg/mL (≈ 0.241 µM)
M. tuberculosis H37Rv; read-out: MIC (µg/mL) / CLR
  MIC: > 1.3 µg/mL
M. abscessus; read-out: MIC (µg/mL) / CLR
  MIC: 0.9 µg/mL (≈ 1.2 µM)
M. avium intracellulaire; read-out: MIC (µg/mL) / CLR
  MIC: 0.014 µg/mL (≈ 0.0187 µM)
M. tuberculosis Erdman; read-out: MIC (µg/mL) / CLR
  MIC: > 1.3 µg/mL
P. aeruginosa; read-out: MIC (µg/mL) / CLR
  MIC: > 8.2 µg/mL
E. coli; read-out: MIC (µg/mL) / CLR
  MIC: > 8.2 µg/mL
[1]; read-out: MIC CLR
  MIC: 0.068 µg/mL (≈ 0.0909 µM)
[2]; read-out: MIC CLR
  MIC: 0.15 µg/mL (≈ 0.201 µM)
[3]; read-out: MIC CLR
  MIC: 0.082 µg/mL (≈ 0.11 µM)
[4]; read-out: MIC CLR
  MIC: 2.8 µg/mL (≈ 3.74 µM)
[5]; read-out: MIC CLR
  MIC: 0.65 µg/mL (≈ 0.869 µM)
[6]; read-out: MIC CLR
  MIC: 3.4 µg/mL (≈ 4.55 µM)
[7]; read-out: MIC CLR
  MIC: 2.9 µg/mL (≈ 3.88 µM)

## NCC[C@H](O)C(=O)N[C@@H]1C[C@H](N)[C@@H](O[C@H]2O[C@H](CN)[C@@H](O)[C@H](O)[C@H]2O)[C@H](O)[C@H]1O[C@H]1O[C@H](CO)[C@@H](O)[C@H](N)[C@H]1O [Amikacin]
C. glutamicum; read-out: MIC (µg/mL) / AMK
  MIC: 0.064 µg/mL (≈ 0.109 µM)
B. cereus; read-out: MIC (µg/mL) / AMK
  MIC: 64 µg/mL (≈ 109 µM)
M. avium hominissuis; read-out: MIC (µg/mL) / AMK
  MIC: 5.6 µg/mL (≈ 9.56 µM)
M. tuberculosis H37Rv; read-out: MIC (µg/mL) / AMK
  MIC: 0.3 µg/mL (≈ 0.512 µM)
M. abscessus; read-out: MIC (µg/mL) / AMK
  MIC: 4.8 µg/mL (≈ 8.2 µM)
M. avium intracellulaire; read-out: MIC (µg/mL) / AMK
  MIC: 3.8 µg/mL (≈ 6.49 µM)
M. tuberculosis Erdman; read-out: MIC (µg/mL) / AMK
  MIC: 0.48 µg/mL (≈ 0.82 µM)
P. aeruginosa; read-out: MIC (µg/mL) / AMK
  MIC: 0.22 µg/mL (≈ 0.376 µM)
E. coli; read-out: MIC (µg/mL) / AMK
  MIC: 0.15 µg/mL (≈ 0.256 µM)
[1]; read-out: MIC AMK
  MIC: 14 µg/mL (≈ 23.9 µM)
[2]; read-out: MIC AMK
  MIC: 7 µg/mL (≈ 12 µM)
[3]; read-out: MIC AMK
  MIC: 8.8 µg/mL (≈ 15 µM)
[5]; read-out: MIC AMK
  MIC: 2.4 µg/mL (≈ 4.1 µM)
[6]; read-out: MIC AMK
  MIC: 2.1 µg/mL (≈ 3.59 µM)
[7]; read-out: MIC AMK
  MIC: 5.7 µg/mL (≈ 9.73 µM)

## COc1nc2ccc(Br)cc2cc1[C@@H](c1ccccc1)[C@@](O)(CCN(C)C)c1cccc2ccccc12 [Bedaquiline]
C. glutamicum; read-out: MIC (µg/mL) / BDQ
  MIC: > 7.8 µg/mL
B. cereus; read-out: MIC (µg/mL) / BDQ
  MIC: > 7.8 µg/mL
M. avium hominissuis; read-out: MIC (µg/mL) / BDQ
  MIC: 0.038 µg/mL (≈ 0.0684 µM)
M. tuberculosis H37Rv; read-out: MIC (µg/mL) / BDQ
  MIC: 0.26 µg/mL (≈ 0.468 µM)
M. abscessus; read-out: MIC (µg/mL) / BDQ
  MIC: 0.67 µg/mL (≈ 1.21 µM)
M. avium intracellulaire; read-out: MIC (µg/mL) / BDQ
  MIC: 0.014 µg/mL (≈ 0.0252 µM)
M. tuberculosis Erdman; read-out: MIC (µg/mL) / BDQ
  MIC: 0.061 µg/mL (≈ 0.11 µM)
P. aeruginosa; read-out: MIC (µg/mL) / BDQ
  MIC: > 7.8 µg/mL
E. coli; table prints MIC, main text calls the EPT values MIC90, read-out: MIC (µg/mL) / BDQ
  MIC: > 7.8 µg/mL
[1]; read-out: MIC BDQ
  MIC: 0.23 µg/mL (≈ 0.414 µM)
[2]; read-out: MIC BDQ
  MIC: 1.3 µg/mL (≈ 2.34 µM)
[3]; read-out: MIC BDQ
  MIC: 0.4 µg/mL (≈ 0.72 µM)
[4]; read-out: MIC BDQ
  MIC: 0.39 µg/mL (≈ 0.702 µM)
[5]; read-out: MIC BDQ
  MIC: 0.27 µg/mL (≈ 0.486 µM)
[6]; read-out: MIC BDQ
  MIC: 0.36 µg/mL (≈ 0.648 µM)
[7]; read-out: MIC BDQ
  MIC: 0.83 µg/mL (≈ 1.49 µM)
